“Also recorded” adds a separate entry of the source.
Assays:
NMDAR [1] = conditions: NMDA 20 mg/kg i.p. 1 and 2 days after CHI; assessed 7 and 14 days postinjury (P=0.05 and 0.016)
Text: Trauma Model. We used 8- to 12-week-old male Sabra mice (30-35 g) kept under controlled temperature and light conditions with food and water available ad libitum. The study was approved by the Institutional Animal Care Committee of the Hebrew University. Experimental CHI was induced by using a modified weight-drop device developed in our laboratory (Chen et al., J. Neurotrauma 13, 557-568 (1996); Yatziv et al., J. Cereb. Blood Flow Metab. 22, 971-978 (2002)). Briefly, after induction of ether anesthesia, a midline longitudinal incision was performed, the skin was retracted and the skull was exposed. The left anterior frontal area was identified and a Teflon tipped cone (2-mm diameter) was placed 1 mm lateral to the midline, in the midcoronal plane. The head was held in place manually and a 75-g weight was dropped on the cone from a height of 18 cm, resulting in a focal injury to the left hemisphere. After trauma, the mice received supporting oxygenation with 95% O2 for no longer than 2 min and were then returned to their cages. […]
(§1) Drug Treatments. […] The three groups were repeatedly evaluated for neurobehavioral deficits over a 2-week period (see below). […] Cognitive function was evaluated in head-injured and intact […] administered with either NMDA 20 mg/kg or saline 24 and again 48 h postinjury and tested 14 days later for performance in the object recognition test (see below).

NMDAR [2] = assay: Object recognition test 14 days after CHI; type: in vivo, mice; conditions: for Percent of exploration time at the novel object: 4 h after baseline; for Proportion of time exploring two objects at baseline: baseline with two identical objects
Text: Trauma Model. We used 8- to 12-week-old male Sabra mice (30-35 g) kept under controlled temperature and light conditions with food and water available ad libitum. The study was approved by the Institutional Animal Care Committee of the Hebrew University. Experimental CHI was induced by using a modified weight-drop device developed in our laboratory (Chen et al., J. Neurotrauma 13, 557-568 (1996); Yatziv et al., J. Cereb. Blood Flow Metab. 22, 971-978 (2002)). Briefly, after induction of ether anesthesia, a midline longitudinal incision was performed, the skin was retracted and the skull was exposed. The left anterior frontal area was identified and a Teflon tipped cone (2-mm diameter) was placed 1 mm lateral to the midline, in the midcoronal plane. The head was held in place manually and a 75-g weight was dropped on the cone from a height of 18 cm, resulting in a focal injury to the left hemisphere. After trauma, the mice received supporting oxygenation with 95% O2 for no longer than 2 min and were then returned to their cages. Sham controls received anesthesia and skin incision only. For autoradiographic studies, groups of four to five animals per time point were killed 15 min, 1, 4, 8, or 24 h, or 7 days postinjury and brains were quickly removed and frozen on dry ice.
as §1
Evaluation of Performance in the Object Recognition Test. The object recognition test was performed as originally described by Ennaceur and Delacour (Ennaceur & Delacour, Behav. Brain Res. 31, 47-59 (1988)). In the first part of the test (14 days after CHI) mice were placed in the testing cage (a glass aquarium-like transparent box of 60×60 cm) for 1 h habituation. On the following day they were put back into the same cage with two identical objects. The cumulative time spent by the mouse at each of the objects was recorded manually during a 5-min interval by an observer blinded to the treatment received. Four hours later, the mice were reintroduced into the cage, where one of the two objects was replaced by a new one. The time (of 5 min total) spent at each of the objects was recorded. The basic measure is the percent of the total time spent by mice in exploring an object during the testing period, whereby normal healthy rodents will spend relatively more time exploring a new object than a familiar, i.e., “memorized” object.

intact mice = assay: NMDA dose-response experiment in intact mice (tolerability); conditions: i.p.

Structure (SMILES): CN[C@H](CC(=O)O)C(=O)O [NMDA, N-methyl-D-aspartate]
- dNSS (extent of neurological recovery) compared to vehicle-treated CHI mice (NMDAR [1]): significantly higher; also recorded: significantly accelerated
- Object recognition performance compared to vehicle-treated CHI animals (NMDAR [2]; CHI mice, NMDA 20 mg/kg 24 and 48 h postinjury, 14 days after CHI (P<0.0001)): significantly higher percentage; also recorded: significantly better
- Percent of exploration time at the novel object (NMDAR [2]; CHI mice, NMDA 20 mg/kg 24 and 48 h postinjury, tested 14 days after CHI): ≈ 70%
- Proportion of time exploring two objects at baseline (NMDAR [2]; CHI+NMDA group): ≈ 50%
- Effect on object recognition performance of intact (naive) animals (NMDAR [2]; intact animals, NMDA 20 mg/kg): no effect
- Percent of exploration time at the novel object (NMDAR [2]; intact mice treated with NMDA 20 mg/kg): ≈ 70%
- Proportion of time exploring two objects at baseline (NMDAR [2]; naive+NMDA group): ≈ 50%
- Doses at which significant mortality was observed (intact mice; doses tested between 20 and 100 mg/kg): above 60 mg/kg
- Behavioural effects and mortality at the lowest dose (intact mice; lowest dose of 20-100 mg/kg range (20 mg/kg)): hyperactivity and some stereotypy but no convulsions or mortality
